What was measured:
Assay type in all cases: cell-based
Saos-2 = test: Alamar Blue cell viability assay, Saos-2; settings: Homo sapiens; Saos-2, Osteosarcoma
Procedure: (§1) The effect of Compound I on cell viability was assessed by Alamar Blue assay of metabolic activity in various cancer cell lines.

A7 = test: Alamar Blue cell viability assay, A7; settings: A7, Melanoma
Procedure: as §1

BRCA12 deficient cells = test: Toxicity against BRCA12 deficient cells; settings: cell lines of different genetic backgrounds (colon, breast and ovary), mouse and human
NCI-H460 = test: Alamar Blue cell viability assay, NCI-H460; settings: Homo sapiens; NCI-H460, Lung
Procedure: as §1

- EC50 (NCI-H460): 38 nM
Structure (SMILES): Cc1cnc(CNC(=O)c2c(=O)c3ccc(N4CCCN(C)CC4)nc3n3c2sc2ccccc23)cn1 [Compound I, 2-(4-Methyl-[1,4]diazepan-1-yl)-5-oxo-5H-7-thia-1,11b-diaza-benzo[c]fluorene-6-carboxylic acid (5-methyl-pyrazin-2-ylmethyl)-amide]
- EC50 (Saos-2): 5000 nM
- EC50 (A7): 23 nM
- Toxicity against BRCA12 deficient cells (BRCA12 deficient cells): specific toxicity
